Test results as given in patent US4857546A, “Novel HMG-CoA reductase inhibitors” (Merck & Co., Inc., priority 1988, dated 1989).

Biological target: T1, HMG-CoA reductase (Rattus norvegicus, UniProt P51639)
T1 sequence (P51639 1-887): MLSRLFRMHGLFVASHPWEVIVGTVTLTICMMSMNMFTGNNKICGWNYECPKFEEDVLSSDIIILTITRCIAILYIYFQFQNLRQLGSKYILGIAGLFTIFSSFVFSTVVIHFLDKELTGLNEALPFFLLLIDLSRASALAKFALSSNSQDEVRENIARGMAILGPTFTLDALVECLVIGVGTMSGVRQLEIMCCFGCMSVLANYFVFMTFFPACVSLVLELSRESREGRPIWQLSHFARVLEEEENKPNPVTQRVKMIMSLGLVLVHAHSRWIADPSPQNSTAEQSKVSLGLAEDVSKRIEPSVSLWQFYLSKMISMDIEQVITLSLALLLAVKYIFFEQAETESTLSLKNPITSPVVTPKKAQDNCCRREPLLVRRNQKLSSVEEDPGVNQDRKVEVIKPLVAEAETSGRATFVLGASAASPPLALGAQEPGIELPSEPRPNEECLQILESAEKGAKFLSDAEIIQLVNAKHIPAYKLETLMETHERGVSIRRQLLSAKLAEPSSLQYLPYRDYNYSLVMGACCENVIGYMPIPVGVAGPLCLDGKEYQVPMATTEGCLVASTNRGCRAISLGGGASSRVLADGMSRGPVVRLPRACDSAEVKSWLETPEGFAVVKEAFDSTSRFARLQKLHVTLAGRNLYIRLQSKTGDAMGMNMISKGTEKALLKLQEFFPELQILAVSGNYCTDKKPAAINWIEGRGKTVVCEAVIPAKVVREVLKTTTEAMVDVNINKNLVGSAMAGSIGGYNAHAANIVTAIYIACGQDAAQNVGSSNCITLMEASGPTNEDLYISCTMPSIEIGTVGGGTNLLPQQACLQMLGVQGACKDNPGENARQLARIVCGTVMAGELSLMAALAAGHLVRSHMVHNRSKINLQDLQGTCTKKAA
Assay: intrinsic HMG-CoA reductase inhibition, in vitro protocol of J. Med. Chem. 28, 347-358 (1985)
Assay type: biochemical
Settings: IC50 of test compound compared with that of compactin (mevastatin) determined simultaneously; compactin assigned 100
Protocol: The intrinsic HMG-CoA reductase inhibition activity of the claimed compounds is measured in the in vitro protocol published in J. Med. Chem. 28, p. 347-358 (1985).
For estimation of relative inhibitory potencies, mevastatin (compactin) was assigned a value of 100 and the IC50 value of the test compound was compared with that of compactin determined simultaneously in the published in vitro protocol.

Row | SMILES | Relative Potency
1 | CCC(C)(C)C(=O)O[C@H]1C[C@H](CNC(=O)NCc2ccccc2)C=C2C=C[C@H](C)[C@H](CC[C@@H]3C[C@@H](O)CC(=O)O3)[C@H]21 [Example 5, 6(R)-[2-[8(S)-(2,2-dimethylbutyryloxy)-2(S)-methyl-6(S)-benzylureidomethyl-1,2,6,7,8,8a(R)-hexahydronaphthyl-1(S)]ethyl]-4(R)-hydroxy-3,4,5,6-tetrahydro-2H-pyran-2-one] | 500
2 | CCC(C)(C)C(=O)O[C@H]1C[C@H](CNC(=O)c2ccccc2)C=C2C=C[C@H](C)[C@H](CC[C@@H]3C[C@@H](O)CC(=O)O3)[C@H]21 [Example 3, 6(R)-[2-[8(S)-(2,2-dimethylbutyryloxy)-2(S)-methyl-6(S)-phenylcarbonylaminomethyl-1,2,6,7,8,8a(R)-hexahydronaphthyl-1(S)]ethyl]-4(R)-hydroxy-3,4,5,6-tetrahydro-2H-pyran-2-one] | 300
3 | CCC(C)(C)C(=O)O[C@H]1C[C@H](CNCc2ccccc2)C=C2C=C[C@H](C)[C@H](CC[C@@H]3C[C@@H](O)CC(=O)O3)[C@H]21 [Example 2, 6(R)-[2-[8(S)-(2,2-dimethylbutyryloxy)-2(S)-methyl-6(S)-benzylaminomethyl-1,2,6,7,8, 8a(R)-hexahydronaphthyl-1(S)]ethyl]-4(R)-hydroxy-3,4,5,6-tetrahydro-2H-pyran-2-one] | 167
4 | CCC(C)(C)C(=O)O[C@H]1C[C@H](CNC(=O)Nc2ccccc2)C=C2C=C[C@H](C)[C@H](CC[C@@H]3C[C@@H](O)CC(=O)O3)[C@H]21 [Example 4, 6(R)-[2-[8(S)-(2,2-dimethylbutyryloxy)-2(S)-methyl-6(S)-phenylureidomethyl-1,2,6,7,8,8a(R)-hexahydronaphthyl-1(S)]ethyl]-4(R)-hydroxy-3,4,5,6-tetrahydro-2H-pyran-2-one] | 294
5 | CCC(C)(C)C(=O)O[C@H]1C[C@H](CN)C=C2C=C[C@H](C)[C@H](CC[C@@H](O)C[C@@H](O)CC(=O)O)[C@H]21 [Example 1] | 125
